Reference: PubChem BioAssay (NCI)
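Growth conditions: 96-well plates. Treatment: test compound, 48 hours, 5 concentrations. Analysis: linear interpolation between bracketing concentrations; unreached endpoints set to highest concentration. The concentration for full growth arrest is given as TGI.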

Assays:
Assay in all cases: growth of human tumour cells (NCI), 48 h
[1] = test system: 786-0 renal
[2] = test system: A498 renal
[3] = test system: A549 NSCLC
[4] = test system: ACHN renal
[5] = test system: BT-549 breast
[6] = test system: CAKI-1 renal
[7] = test system: CCRF-CEM leukemia
[8] = test system: COLO 205 colon
[9] = test system: DU-145 prostate
[10] = test system: EKVX NSCLC
[11] = test system: HCC-2998 colon
[12] = test system: HCT-116 colon
[13] = test system: HCT-15 colon
[14] = test system: HL-60(TB) leukemia
[15] = test system: HOP-62 NSCLC
[16] = test system: HOP-92 NSCLC
[17] = test system: HS 578T breast
[18] = test system: HT29 colon
[19] = test system: IGROV1 ovarian
[20] = test system: K-562 leukemia
[21] = test system: KM12 colon
[22] = test system: LOX IMVI melanoma
[23] = test system: M14 melanoma
[24] = test system: MALME-3M melanoma
[25] = test system: MCF7 breast
[26] = test system: MDA-MB-231 breast
[27] = test system: MDA-MB-435
[28] = test system: MDA-N
[29] = test system: MOLT-4 leukemia
[30] = test system: NCI-H23 lung
[31] = test system: NCI-H460 lung
[32] = test system: NCI-H522 lung
[33] = test system: NCI/ADR-RES ovarian
[34] = test system: OVCAR-3 ovarian
[35] = test system: OVCAR-4 ovarian
[36] = test system: OVCAR-5 ovarian
[37] = test system: OVCAR-8 ovarian
[38] = test system: PC-3 prostate
[39] = test system: RPMI-8226 leukemia
[40] = test system: RXF 393 renal
[41] = test system: SF-268 CNS
[42] = test system: SF-295 CNS
[43] = test system: SF-539 CNS
[44] = test system: SK-MEL-2 melanoma
[45] = test system: SK-MEL-28 melanoma
[46] = test system: SK-MEL-5 melanoma
[47] = test system: SK-OV-3 ovarian
[48] = test system: SN12C renal
[49] = test system: SNB-19 CNS
[50] = test system: SNB-75 CNS
[51] = test system: SR leukemia
[52] = test system: SW-620 colon
[53] = test system: T-47D breast
[54] = test system: TK-10 renal
[55] = test system: U251 CNS
[56] = test system: UACC-257 melanoma
[57] = test system: UACC-62 melanoma
[58] = test system: UO-31 renal

Structure (SMILES): COc1cc(C2c3cc4c(cc3OC3(OC)COC(=O)C23)OCO4)cc(OC)c1OC(C)=O (stereo not drawn)
- TGI [1]: > 100 µM
- TGI [2]: 97.4 µM
- TGI [3]: > 100 µM
- TGI [4]: > 100 µM
- TGI [5]: > 100 µM
- TGI [6]: > 100 µM
- TGI [7]: > 100 µM
- TGI [8]: > 49.3 µM
- TGI [9]: > 100 µM
- TGI [10]: > 100 µM
- TGI [11]: 14.3 µM
- TGI [12]: 38.7 µM
- TGI [13]: > 100 µM
- TGI [14]: 12.8 µM
- TGI [15]: 31.7 µM
- TGI [16]: > 100 µM
- TGI [17]: > 100 µM
- TGI [18]: > 37.5 µM
- TGI [19]: > 100 µM
- TGI [20]: > 100 µM
- TGI [21]: > 100 µM
- TGI [22]: > 82.2 µM
- TGI [23]: > 74.2 µM
- TGI [24]: > 100 µM
- TGI [25]: > 36.4 µM
- TGI [26]: > 100 µM
- TGI [27]: 2.23 µM
- TGI [28]: 2.55 µM
- TGI [29]: > 100 µM
- TGI [30]: > 100 µM
- TGI [31]: > 59.7 µM
- TGI [32]: 2.43 µM
- TGI [33]: 10.4 µM
- TGI [34]: > 36.2 µM
- TGI [35]: > 100 µM
- TGI [36]: > 41.4 µM
- TGI [37]: > 75.2 µM
- TGI [38]: > 36.1 µM
- TGI [39]: > 100 µM
- TGI [40]: 7.49 µM
- TGI [41]: > 100 µM
- TGI [42]: 5.38 µM
- TGI [43]: 2.25 µM
- TGI [44]: > 100 µM
- TGI [45]: > 100 µM
- TGI [46]: 34.6 µM
- TGI [47]: > 100 µM
- TGI [48]: > 100 µM
- TGI [49]: > 100 µM
- TGI [50]: > 62.9 µM
- TGI [51]: > 31.6 µM
- TGI [52]: > 100 µM
- TGI [53]: > 100 µM
- TGI [54]: > 100 µM
- TGI [55]: > 100 µM
- TGI [56]: > 100 µM
- TGI [57]: > 100 µM
- TGI [58]: > 100 µM
